Reference: patent US20190284136A1, “INDOLINE DERIVATIVES” (ViiV HEALTHCARE UK LIMITED, priority 2016, published 2019)

Test system: HIV
Assay: Table 1 IC50 of the examples (assay method not given; patent concerns inhibiting HIV replication)
Format: cell-based
Conditions: Human immunodeficiency virus 1

| Compound | IC50 |
| --- | --- |
| Cc1cc2c(c(-c3cc(F)c4c(c3C)CCCO4)c1[C@H](OC(C)(C)C)C(=O)O)CCN2C(=O)c1cc(Cl)ccc1F (atropisomer, axis not shown) [Example 145, (S)-2-(tert-Butoxy)-2-((R)-1-(5-chloro-2-fluorobenzoyl)-4-(8-fluoro-5-methylchroman-6-yl)-6-methylindolin-5-yl)acetic acid] | 14 nM |
| Cc1ccc(C(=O)N2CCc3c2cc(C)c([C@H](OC(C)(C)C)C(=O)O)c3-c2cc(F)c3c(c2C)CCCO3)cc1C(F)(F)F (atropisomer, axis not shown) [Example 146, (S)-2-(tert-Butoxy)-2-((R)-4-(8-fluoro-5-methylchroman-6-yl)-6-methyl-1-(4-methyl-3-(trifluoromethyl)benzoyl)indolin-5-yl)acetic acid] | 5 nM |
| Cc1cc2c(c(-c3cc(F)c4c(c3C)CCCO4)c1[C@H](OC(C)(C)C)C(=O)O)CCN2C(=O)c1cc(Cl)cc(C(F)(F)F)c1 (atropisomer, axis not shown) [Example 147, (S)-2-(tert-Butoxy)-2-((R)-1-(3-chloro-5-(trifluoromethyl)benzoyl)-4-(8-fluoro-5-methylchroman-6-yl)-6-methylindolin-5-yl)acetic acid] | 17 nM |
| Cc1cc2c(c(-c3cc(F)c4c(c3C)CCCO4)c1[C@H](OC(C)(C)C)C(=O)O)CCN2C(=O)c1ccc(Cl)c(C(F)(F)F)c1 (atropisomer, axis not shown) [Example 148, (S)-2-(tert-Butoxy)-2-((R)-1-(4-chloro-3-(trifluoromethyl)benzoyl)-4-(8-fluoro-5-methylchroman-6-yl)-6-methylindolin-5-yl)acetic acid] | 8 nM |
| Cc1ccc(Cl)cc1C(=O)N1CCc2c1cc(C)c([C@H](OC(C)(C)C)C(=O)O)c2-c1cc(F)c2c(c1C)CCCO2 (atropisomer, axis not shown) [Example 149] | 5 nM |
| Cc1cc2c(c(-c3cc(F)c4c(c3C)CCCO4)c1[C@H](OC(C)(C)C)C(=O)O)CCN2C(=O)c1cc(F)ccc1Cl (atropisomer, axis not shown) [Example 150, (S)-2-(tert-Butoxy)-2-((R)-1-(2-chloro-5-fluorobenzoyl)-4-(8-fluoro-5-methylchroman-6-yl)-6-methylindolin-5-yl)acetic acid] | 8 nM |
| COc1ccc(C(=O)N2CCc3c2cc(C)c([C@H](OC(C)(C)C)C(=O)O)c3-c2cc(F)c3c(c2C)CCCO3)c(C(F)(F)F)c1 (atropisomer, axis not shown) [Example 152, (S)-2-(tert-Butoxy)-2-((R)-4-(8-fluoro-5-methylchroman-6-yl)-1-(4-methoxy-2-(trifluoromethyl)benzoyl)-6-methylindolin-5-yl)acetic acid] | 13 nM |
| CNC(=O)c1cccc(C(=O)N2CCc3c2cc(C)c([C@H](OC(C)(C)C)C(=O)O)c3-c2cc(F)c3c(c2C)CCCO3)c1 (atropisomer, axis not shown) [Example 153, (S)-2-(tert-Butoxy)-2-((R)-4-(8-fluoro-5-methylchroman-6-yl)-6-methyl-1-(3-(methylcarbamoyl)benzoyl)indolin-5-yl)acetic acid] | 125 nM |
| Cc1cc2c(c(-c3cc(F)c4c(c3C)CCCO4)c1[C@H](OC(C)(C)C)C(=O)O)CCN2C(=O)c1cc(C(F)(F)F)ccc1Cl (atropisomer, axis not shown) [Example 154, (S)-2-(tert-Butoxy)-2-((R)-1-(2-chloro-5-(trifluoromethyl)benzoyl)-4-(8-fluoro-5-methylchroman-6-yl)-6-methylindolin-5-yl)acetic acid] | 52 nM |
| Cc1cc2c(c(-c3cc(F)c4c(c3C)CCCO4)c1[C@H](OC(C)(C)C)C(=O)O)CCN2C(=O)c1cc(C(F)(F)F)ccc1F (atropisomer, axis not shown) [Example 155, (S)-2-(tert-Butoxy)-2-((R)-1-(2-fluoro-5-(trifluoromethyl)benzoyl)-4-(8-fluoro-5-methylchroman-6-yl)-6-methylindolin-5-yl)acetic acid] | 72 nM |
| Cc1cc2c(c(-c3cc(F)c4c(c3C)CCCO4)c1[C@H](OC(C)(C)C)C(=O)O)CCN2C(=O)c1ccc(Cl)cc1C(F)(F)F (atropisomer, axis not shown) [Example 156, (S)-2-(tert-Butoxy)-2-((R)-1-(4-chloro-2-(trifluoromethyl)benzoyl)-4-(8-fluoro-5-methylchroman-6-yl)-6-methylindolin-5-yl)acetic acid] | 5 nM |
| COc1ccc(C(=O)N2CCc3c2cc(C)c([C@H](OC(C)(C)C)C(=O)O)c3-c2cc(F)c3c(c2C)CCCO3)cc1C(F)(F)F (atropisomer, axis not shown) [Example 157, (S)-2-(tert-Butoxy)-2-((R)-4-(8-fluoro-5-methylchroman-6-yl)-1-(4-methoxy-3-(trifluoromethyl)benzoyl)-6-methylindolin-5-yl)acetic acid] | 6 nM |
| COc1cc(C)ccc1C(=O)N1CCc2c1cc(C)c([C@H](OC(C)(C)C)C(=O)O)c2-c1cc(F)c2c(c1C)CCCO2 (atropisomer, axis not shown) [Example 159, (S)-2-(tert-Butoxy)-2-((R)-4-(8-fluoro-5-methylchroman-6-yl)-1-(2-methoxy-4-methylbenzoyl)-6-methylindolin-5-yl)acetic acid] | 4 nM |
| Cc1cc2c(c(-c3cc(F)c4c(c3C)CCCO4)c1[C@H](OC(C)(C)C)C(=O)O)CCN2C(=O)c1cccc(C(F)(F)F)c1F (atropisomer, axis not shown) [Example 160, (S)-2-(tert-Butoxy)-2-((R)-1-(2-fluoro-3-(trifluoromethyl)benzoyl)-4-(8-fluoro-5-methylchroman-6-yl)-6-methylindolin-5-yl)acetic acid] | 14 nM |
| Cc1cc2c(c(-c3cc(F)c4c(c3C)CCCO4)c1[C@H](OC(C)(C)C)C(=O)O)CCN2C(=O)C1CCC1 (atropisomer, axis not shown) [Example 161, (S)-2-(tert-Butoxy)-2-((R)-1-(cyclobutanecarbonyl)-4-(8-fluoro-5-methylchroman-6-yl)-6-methylindolin-5-yl)acetic acid] | 81 nM |
| COc1cccc(C(=O)N2CCc3c2cc(C)c([C@H](OC(C)(C)C)C(=O)O)c3-c2cc(F)c3c(c2C)CCCO3)c1 (atropisomer, axis not shown) [Example 162, (S)-2-(tert-Butoxy)-2-((R)-4-(8-fluoro-5-methylchroman-6-yl)-1-(3-methoxybenzoyl)-6-methylindolin-5-yl)acetic acid] | 7 nM |
| COc1cc(C(F)(F)F)ccc1C(=O)N1CCc2c1cc(C)c([C@H](OC(C)(C)C)C(=O)O)c2-c1cc(F)c2c(c1C)CCCO2 (atropisomer, axis not shown) [Example 163, (S)-2-(tert-Butoxy)-2-((R)-4-(8-fluoro-5-methylchroman-6-yl)-1-(2-methoxy-4-(trifluoromethyl)benzoyl)-6-methylindolin-5-yl)acetic acid] | 9 nM |
| Cc1cc2c(c(-c3cc(F)c4c(c3C)CCCO4)c1[C@H](OC(C)(C)C)C(=O)O)CCN2C(=O)c1cccc(C(=O)N2CCCCC2)c1 (atropisomer, axis not shown) [Example 164, (S)-2-(tert-Butoxy)-2-((R)-4-(8-fluoro-5-methylchroman-6-yl)-6-methyl-1-(3-(piperidine-1-carbonyl)benzoyl)indolin-5-yl)acetic acid] | 176 nM |
| Cc1ccc(Cl)c(C(=O)N2CCc3c2cc(C)c([C@H](OC(C)(C)C)C(=O)O)c3-c2cc(F)c3c(c2C)CCCO3)c1 (atropisomer, axis not shown) [Example 165, (S)-2-(tert-Butoxy)-2-((R)-1-(2-chloro-5-methylbenzoyl)-4-(8-fluoro-5-methylchroman-6-yl)-6-methylindolin-5-yl)acetic acid] | 6 nM |
| Cc1cc2c(c(-c3cc(F)c4c(c3C)CCCO4)c1[C@H](OC(C)(C)C)C(=O)O)CCN2C(=O)c1cccc2c1OCCC2 (atropisomer, axis not shown) [Example 166, (S)-2-(tert-butoxy)-2-((R)-1-(chromane-8-carbonyl)-4-(8-fluoro-5-methylchroman-6-yl)-6-methylindolin-5-yl)acetic acid] | 4 nM |
| COc1ccc(F)c(C(=O)N2CCc3c2cc(C)c([C@H](OC(C)(C)C)C(=O)O)c3-c2cc(F)c3c(c2C)CCCO3)c1 (atropisomer, axis not shown) [Example 167, (S)-2-(tert-Butoxy)-2-((R)-1-(2-fluoro-5-methoxybenzoyl)-4-(8-fluoro-5-methylchroman-6-yl)-6-methylindolin-5-yl)acetic acid] | 7 nM |
| COc1ccc(C(=O)N2CCc3c2cc(C)c([C@H](OC(C)(C)C)C(=O)O)c3-c2cc(F)c3c(c2C)CCCO3)c(C)c1 (atropisomer, axis not shown) [Example 168, (S)-2-(tert-Butoxy)-2-((R)-4-(8-fluoro-5-methylchroman-6-yl)-1-(4-methoxy-2-methylbenzoyl)-6-methylindolin-5-yl)acetic acid] | 13 nM |
| Cc1cc2c(c(-c3cc(F)c4c(c3C)CCCO4)c1[C@H](OC(C)(C)C)C(=O)O)CCN2C(=O)c1cccc2c1CCCO2 (atropisomer, axis not shown) [Example 169, (S)-2-(tert-Butoxy)-2-((R)-1-(chromane-5-carbonyl)-4-(8-fluoro-5-methylchroman-6-yl)-6-methylindolin-5-yl)acetic acid] | 2 nM |
| COc1ccc(C(=O)N2CCc3c2cc(C)c([C@H](OC(C)(C)C)C(=O)O)c3-c2cc(F)c3c(c2C)CCCO3)cn1 (atropisomer, axis not shown) [Example 170, (S)-2-(tert-Butoxy)-2-((R)-4-(8-fluoro-5-methylchroman-6-yl)-1-(6-methoxynicotinoyl)-6-methylindolin-5-yl)acetic acid] | 14 nM |
| COc1cnccc1C(=O)N1CCc2c1cc(C)c([C@H](OC(C)(C)C)C(=O)O)c2-c1cc(F)c2c(c1C)CCCO2 (atropisomer, axis not shown) [Example 171, (S)-2-(tert-Butoxy)-2-((R)-4-(8-fluoro-5-methylchroman-6-yl)-1-(3-methoxyisonicotinoyl)-6-methylindolin-5-yl)acetic acid] | 14 nM |
